{"source": "paper PMC4696031", "about": "(Cancer, 2013)", "key": {"[1]": {"test_system": "metastatic UC", "settings": "cited from earlier work; for long-term progression-free survival (PFS): at 5 years; for complete response (CR) rate / median overall survival (mOS) / overall response rate: first-line, phase 3"}, "[2]": {"test_system": "urothelial cancer", "settings": "cited from earlier work"}, "[3]": {"test_system": "advanced UC", "settings": "vinflunine plus BSC, vs 1.5 months BSC alone, P = .001; cited from earlier work"}, "[4]": {"test_system": "solid tumors", "settings": "cited from earlier work"}, "[5]": {"test_system": "patients with locally advanced or metastatic urothelial cancer", "assay": "Phase 2 trial: safety, adverse events", "type": "in vivo"}, "[6]": {"test_system": "UC cell lines", "settings": "cited from earlier work"}, "[7]": {"assay": "Phase 2 trial: plasma pharmacokinetics", "type": "in vivo, patients", "settings": "for Tmax: first 2-hour intravenous infusion of 300 mg"}, "[8]": {"test_system": "locally advanced or metastatic urothelial cancer", "assay": "Phase 2 trial: tumor response", "type": "in vivo, patients"}, "[9]": {"settings": "post hoc subgroup: disease progression >6 months after most recent chemotherapy"}, "[10]": {"settings": "post hoc subgroup: disease progression ≤6 months after most recent chemotherapy"}, "[11]": {"settings": "subgroup: patients who did not escalate"}, "[12]": {"settings": "subgroup: patients who escalated to volasertib 350 mg"}}, "note": "“And” between values parts separate entries of the source, which are not always exact repeats. Equal values may be shown once."}
{"compound": "methotrexate, vinblastine, doxorubicin, and cisplatin [MVAC]", "values": [{"measurement": "long-term progression-free survival (PFS)", "setting": "[1]", "result": 11.3, "unit": "%"}, {"measurement": "complete response (CR) rate", "setting": "[1]", "result": "approximately 12%"}, {"measurement": "median overall survival (mOS)", "setting": "[1]", "result": 14.8, "unit": "months"}, {"measurement": "overall response rate", "setting": "[1]", "result": 46, "unit": "%"}]}
{"compound": "Cc1ccc(Nc2nccc(N(C)c3ccc4c(C)n(C)nc4c3)n2)cc1S(N)(=O)=O", "note": "[pazopanib]", "values": [{"measurement": "antitumor activity in nonrandomized phase 2 trials", "setting": "[2]", "result": "modest activity"}]}
{"compound": "CC[C@]12C=CCN3CC[C@@]4(c5cc([C@@]6(C(=O)OC)C[C@@H]7C[C@@H](C(C)(F)F)CN(Cc8c6[nH]c6ccccc86)C7)c(OC)cc5N(C)[C@H]4[C@@](O)(C(=O)OC)[C@@H]1OC(C)=O)[C@@H]32", "note": "[Vinflunine, vinflunine]", "values": [{"measurement": "median PFS (mPFS)", "setting": "[3]", "result": 3.0, "unit": "months"}]}
{"compound": "gemcitabine plus cisplatin [GC]", "values": [{"measurement": "long-term progression-free survival (PFS)", "setting": "[1]", "result": 9.8, "unit": "%"}, {"measurement": "complete response (CR) rate", "setting": "[1]", "result": "approximately 12%"}, {"measurement": "median overall survival (mOS)", "setting": "[1]", "result": 13.8, "unit": "months"}, {"measurement": "overall response rate", "setting": "[1]", "result": 49, "unit": "%"}]}
{"compound": "CC[C@@H]1C(=O)N(C)c2cnc(Nc3ccc(C(=O)N[C@H]4CC[C@H](N5CCN(CC6CC6)CC5)CC4)cc3OC)nc2N1C(C)C", "note": "[Volasertib]", "values": [{"measurement": "maximum tolerated dose", "setting": "[4]; dose-escalation clinical phase 1 trial", "result": 400, "unit": "mg"}, {"measurement": "recommended dose for phase 2 trials", "setting": "[4]; in vivo, iv", "result": 300, "unit": "mg"}, {"measurement": "tumor response in phase 1 trials", "setting": "[4]; patients with heavily pretreated, metastatic UC", "result": "partial responses"}, {"measurement": "Adverse event leading to dose reduction: Diarrhea", "setting": "[5]; human, in vivo", "result": "1 (2) No. of Patients (%)"}, {"measurement": "Adverse event leading to dose reduction: ECG: Prolonged QT", "setting": "[5]; human, in vivo", "result": "1 (2) No. of Patients (%)"}, {"measurement": "Adverse event leading to dose reduction: Fatigue", "setting": "[5]; human, in vivo", "result": "1 (2) No. of Patients (%)"}, {"measurement": "Adverse event leading to dose reduction: Nausea", "setting": "[5]; human, in vivo", "result": "1 (2) No. of Patients (%)"}, {"measurement": "Adverse event leading to dose reduction: Neutropenia", "setting": "[5]; human, in vivo", "result": "2 (4) No. of Patients (%)"}, {"measurement": "Adverse event leading to dose reduction: Thrombocytopenia", "setting": "[5]; human, in vivo", "result": "3 (6) No. of Patients (%)"}, {"measurement": "febrile neutropenia (grade 3)", "setting": "[5]; human, in vivo", "result": 1, "unit": "episode"}, {"measurement": "grade 3 and 4 anemia", "setting": "[5]; human, in vivo", "result": 16, "unit": "%"}, {"measurement": "grade 3 and 4 neutropenia", "setting": "[5]; human, in vivo", "result": 28, "unit": "%"}, {"measurement": "grade 3 and 4 thrombocytopenia", "setting": "[5]; human, in vivo", "result": 20, "unit": "%"}, {"measurement": "patients with dose reductions because of unacceptable toxicities in cycle 1", "setting": "[5]; human, in vivo", "result": 4, "unit": "patients"}, {"measurement": "patients with dose reductions because of unacceptable toxicities, overall", "setting": "[5]; human, in vivo", "result": 14, "unit": "%"}, {"measurement": "treatment discontinuation because of AE", "setting": "[5]; human, in vivo", "result": 1, "unit": "n"}, {"measurement": "clinically relevant side effect such as arrhythmias or cardiac dysfunction", "setting": "[5]; in vivo", "result": "No clinically relevant side effect"}, {"measurement": "cumulative toxicity", "setting": "[5]; in vivo", "result": "No cumulative toxicity was observed"}, {"measurement": "grade 3 QTc prolongation", "setting": "[5]; in vivo", "result": "One patient"}, {"measurement": "safety profile", "setting": "[5]; in vivo", "result": "acceptable safety profile"}, {"measurement": "deaths attributed to the study treatment", "setting": "[5]; three patients died during the study because of disease progression", "result": "none"}, {"measurement": "mitotic arrest and apoptosis in UC cells", "setting": "[6]", "result": "promote mitotic arrest and apoptosis"}, {"measurement": "proliferation of multiple UC cell lines", "setting": "[6]; ref data on file, Boehringer Ingelheim", "result": "inhibited the proliferation"}, {"measurement": "effect of sex, age, weight, body mass index, or body surface area on PK profile", "setting": "[7]; data not shown", "result": "not significantly affected"}, {"measurement": "AUC(0-inf)", "setting": "[7]; human, plasma, iv, 300 mg", "result": 5470, "unit": "ng·h/mL"}, {"measurement": "Cmax", "setting": "[7]; human, plasma, iv, 300 mg", "result": 253, "unit": "ng/mL"}, {"measurement": "MRT", "setting": "[7]; human, plasma, iv, 300 mg", "result": 136, "unit": "h"}, {"measurement": "Vd", "setting": "[7]; human, plasma, iv, 300 mg", "result": 7470, "unit": "L"}, {"measurement": "clearance", "setting": "[7]; human, plasma, iv, 300 mg", "result": 914, "unit": "mL/min"}, {"measurement": "half-life", "setting": "[7]; human, plasma, iv, 300 mg", "result": 150, "unit": "h"}, {"measurement": "Tmax", "setting": "[7]; human, plasma, iv, 300 mg, Median", "result": "~2", "unit": "h"}, {"measurement": "Tmax", "setting": "[7]; human, plasma, iv, 300 mg, Range", "result": "1.53 to 4.17", "unit": "h"}, {"measurement": "PK behavior", "setting": "[7]; plasma concentration-time course", "result": "multiexponential PK behavior"}, {"measurement": "Disease control: PR + SD", "setting": "[8]; N = 50", "result": "20 (40) No. of patients (%)"}, {"measurement": "OS rate at 3 mo", "setting": "[8]; N = 50", "result": 77.2, "unit": "%"}, {"measurement": "OS rate at 6 mo", "setting": "[8]; N = 50", "result": 55.5, "unit": "%"}, {"measurement": "OS: Median [95% CI]", "setting": "[8]; N = 50", "result": "8.5 [3.9-12.1] mo"}, {"measurement": "PFS rate at 3 mo", "setting": "[8]; N = 50", "result": 32, "unit": "%"}, {"measurement": "PFS rate at 6 mo", "setting": "[8]; N = 50", "result": 20, "unit": "%"}, {"measurement": "PFS: Median [95% CI]", "setting": "[8]; N = 50", "result": "6.1 [5.6-11.1] wk"}, {"measurement": "patients with partial response", "setting": "[8]; N = 50", "result": 14, "unit": "%"}, {"measurement": "patients with stable disease", "setting": "[8]; N = 50", "result": 26, "unit": "%"}, {"measurement": "Response: SD", "setting": "[8]; best overall response, N = 50", "result": "13 (26) No. of patients (%)"}, {"measurement": "patients who achieved a PR as best overall response", "setting": "[8]; final analysis, N = 50", "result": 7, "unit": "patients"}, {"measurement": "overall response rate", "setting": "[8]; final analysis, N = 50, all PRs", "result": 14, "unit": "%"}, {"measurement": "Duration of disease control, PR or SD: Median", "setting": "[8]; in vivo", "result": 27.0, "unit": "wk"}, {"measurement": "Duration of disease control, PR or SD: range", "setting": "[8]; in vivo", "result": "10.1-77.3 wk"}, {"measurement": "patients with PR at preplanned interim efficacy analysis", "setting": "[8]; of the first 20 patients who completed 4 treatment cycles", "result": 2, "unit": "patients"}, {"measurement": "mPFS", "setting": "[8]; [9]", "result": 10.1, "unit": "weeks"}, {"measurement": "response rate", "setting": "[8]; [9]", "result": 15, "unit": "%"}, {"measurement": "mPFS", "setting": "[8]; [10]", "result": 5.6, "unit": "weeks"}, {"measurement": "response rate", "setting": "[8]; [10]", "result": 14, "unit": "%"}, {"measurement": "Duration of PR: range", "setting": "[8]; responders", "result": "29.1-77.3 wk"}, {"measurement": "PR / response rate", "setting": "[8]; [11]", "result": "7.4% and 7%"}, {"measurement": "mOS", "setting": "[8]; [11]", "result": 5.8, "unit": "months"}, {"measurement": "mPFS", "setting": "[8]; [11]", "result": "6.0 weeks and 6 weeks"}, {"measurement": "PR / response rate", "setting": "[8]; [12]", "result": "21.7% and 22%"}, {"measurement": "mOS", "setting": "[8]; [12]", "result": 10.6, "unit": "months"}, {"measurement": "mPFS", "setting": "[8]; [12]", "result": 11.1, "unit": "weeks"}]}
